Data published in patent publication US20240150321A1, “PYRAZOLYLSULFONAMIDE COMPOUNDS AND THEIR USE IN THERAPY” (HOTSPOT THERAPEUTICS, INC., priority 2022, published 2024).
Where two headings read alike, the source gives them in different places.

What was measured:
Avi-tagged FL MALT-1 = Avi-tagged FL MALT-1 (Homo sapiens (Human), UniProt Q9UDY8); assay: MALT-1 Fluorogenic Peptide Cleavage Assay (MALT1 inhibition assay); type: biochemical; settings: Ac-LRSR-AMC peptide substrate, 30 min pre-incubation, 90 min reaction at room temperature
Summary of the method: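 Cleavage of Ac-LRSR-AMC, read as fluorescence at 342/441 nm after 90 min at room temperature, with substrate working stocks of 50 μM (Km) or 280 μM (10×Km). Enzyme, Avi-tagged full-length MALT-1 (40 nM stock), was first pre-incubated 30 min with compound in citrate/HEPES pH 6.89 buffer with TCEP, EDTA, CHAPS and 2% DMSO; IC50 fitted from normalised % inhibition.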

[1] = test system: NF-kB reporter in Jurkat cells; assay: NF-kB reporter assay in Jurkat cells stimulated with aCD3/aCD28/PMA; type: cell-based; settings: read-out: NF-kB Reporter Assay IC50
Summary of the method: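 Luminescence (One-Glo) from the NF-kB reporter yielded IC50 values. Stimulation lasted 4 h at 37° C with aCD3, aCD28 and PMA (final 5, 5 and 0.03 […]), after 1 h compound pre-exposure of 25,000 Jurkat cells per well in serum-free RPMI.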

[2] = Homo sapiens, Jurkat cells, 1 hr compound pre-incubation, aCD3/aCD28/PMA stimulation 4 hr, One-Glo readout

Chain of Avi-tagged FL MALT-1 (Q9UDY8 whole entry): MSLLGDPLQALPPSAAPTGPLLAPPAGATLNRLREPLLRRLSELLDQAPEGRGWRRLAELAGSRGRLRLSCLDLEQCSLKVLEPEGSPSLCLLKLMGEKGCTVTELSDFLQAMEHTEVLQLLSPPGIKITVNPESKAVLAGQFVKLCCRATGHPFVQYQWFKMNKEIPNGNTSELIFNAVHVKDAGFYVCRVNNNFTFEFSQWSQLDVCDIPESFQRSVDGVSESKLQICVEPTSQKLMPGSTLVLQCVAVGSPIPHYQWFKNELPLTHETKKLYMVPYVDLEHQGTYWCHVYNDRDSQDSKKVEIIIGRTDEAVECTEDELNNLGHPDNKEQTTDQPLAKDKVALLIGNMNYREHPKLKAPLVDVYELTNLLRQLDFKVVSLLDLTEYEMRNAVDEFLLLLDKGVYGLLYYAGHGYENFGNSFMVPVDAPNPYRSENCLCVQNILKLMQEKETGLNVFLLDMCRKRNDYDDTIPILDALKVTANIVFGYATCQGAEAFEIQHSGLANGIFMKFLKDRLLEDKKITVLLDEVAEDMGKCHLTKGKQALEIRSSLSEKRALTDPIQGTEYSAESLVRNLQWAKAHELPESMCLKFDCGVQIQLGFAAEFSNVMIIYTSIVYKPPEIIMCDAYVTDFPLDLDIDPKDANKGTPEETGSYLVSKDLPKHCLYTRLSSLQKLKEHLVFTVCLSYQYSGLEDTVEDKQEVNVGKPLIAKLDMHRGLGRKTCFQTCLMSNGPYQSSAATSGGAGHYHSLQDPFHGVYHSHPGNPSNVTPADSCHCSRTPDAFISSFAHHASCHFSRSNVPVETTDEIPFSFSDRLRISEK

Compound | IC50 (Avi-tagged FL MALT-1) [nM] | IC50 [1, 2] [nM] | IC50 ([1]; Homo sapiens, Jurkat) [nM] | IC50 ([1]; Jurkat cells, 1 hr compound pre-incubation, aCD3/aCD28/PMA stimulation 4 hr, One-Glo readout) [nM]
CC[C@@H](OC)c1ccnc(-n2cc(S(=O)(=O)Nc3c(OC)ccc4cnn(C)c34)cn2)c1 [Compound I-318, N-(6-methoxy-1-methylindazol-7-yl)-1-{4-[(1R)-1-methoxypropyl]pyridin-2-yl}pyrazole-4-sulfonamide] | ≤ 400 | < 400 |  | 
C[C@H]1CN(c2ccnc(-n3cc(S(=O)(=O)Nc4cccc5cnn(C)c45)cn3)c2)C(=O)O1 [Compound I-319] | > 2500 | < 400 |  | 
C[C@@H]1CN(c2ccnc(-n3cc(S(=O)(=O)Nc4cccc5cnn(C)c45)cn3)c2)C(=O)O1 [Compound I-320] | > 2500 | < 400 |  | 
Cn1ncc2cccc(NS(=O)(=O)c3cnn(-c4cc(N5C(=O)OCC5(C)C)ccn4)c3)c21 [Compound I-321] | > 2500 | < 400 |  | 
CN1CCN(c2ccnc(-n3cc(S(=O)(=O)Nc4cccc5cnn(C)c45)cn3)c2)C1=O [Compound I-322] | > 2500 | < 400 |  | 
COc1ccc2cnn(C)c2c1NS(=O)(=O)c1cnn(-c2cc(CO)ccn2)c1 [Compound I-323, 1-[4-(hydroxymethyl)pyridin-2-yl]-N-(6-methoxy-1-methylindazol-7-yl)pyrazole-4-sulfonamide] | 400 to 1000 | < 400 |  | 
Cn1ncc2cccc(NS(=O)(=O)c3cnn(-c4cc(NC(C)(C)CO)ccn4)c3)c21 [Compound I-324, 1-(4-((1-Hydroxy-2-Methylpropan-2-yl)Amino)Pyridin-2-yl)-N-(1-Methyl-1H-Indazol-7-yl)-1H-Pyrazole-4-Sulfonamide] | > 2500 | < 400 |  | 
CN1CC(c2ccnc(-n3cc(S(=O)(=O)Nc4cccc5cnn(C)c45)cn3)c2)C1 [Compound I-325] | > 2500 | > 2500 |  | 
CC(=O)N1CC(c2ccnc(-n3cc(S(=O)(=O)Nc4cccc5cnn(C)c45)cn3)c2)C1 [Compound I-326] | > 2500 | > 2500 |  | 
Cn1ncc2ccc(OC(F)(F)F)c(NS(=O)(=O)c3cnn(-c4cc(C(F)(F)F)ccn4)c3)c21 [Compound I-327, N-[1-methyl-6-(trifluoromethoxy)indazol-7-yl]-1-[4-(trifluoromethyl)pyridin-2-yl]pyrazole-4-sulfonamide] | ≤ 400 |  | < 400 | 
Cn1ncc2cccc(NS(=O)(=O)c3cnn([C@@H]4CCCN(CC(F)(F)F)C4)c3)c21 [Compound I-328] | > 2500 | 1000 to 2500 |  | 
Cn1ncc2cccc(NS(=O)(=O)c3cnn([C@H]4CCCN(CC(F)(F)F)C4)c3)c21 [Compound I-329] | > 2500 | 1000 to 2500 |  | 
COC[C@](C)(F)c1ccnc(-n2cc(S(=O)(=O)Nc3cccc4cnn(C)c34)cn2)c1 [Compound I-330, (R)-1-(4-(2-fluoro-1-methoxypropan-2-yl)pyridin-2-yl)-N-(1-methyl-1H-indazol-7-yl)-1H-pyrazole-4-sulfonamide] | > 2500 | < 400 |  | 
COC[C@@](C)(F)c1ccnc(-n2cc(S(=O)(=O)Nc3cccc4cnn(C)c34)cn2)c1 [Compound I-331, (S)-1-(4-(2-fluoro-1-methoxypropan-2-yl)pyridin-2-yl)-N-(1-methyl-1H-indazol-7-yl)-1H-pyrazole-4-sulfonamide] | > 2500 | < 400 |  | 
CN1C(=O)N(c2ccnc(-n3cc(S(=O)(=O)Nc4cccc5cnn(C)c45)cn3)c2)CC1(C)C [Compound I-332] | > 2500 | < 400 |  | 
CN1CC(C)(C)N(c2ccnc(-n3cc(S(=O)(=O)Nc4cccc5cnn(C)c45)cn3)c2)C1=O [Compound I-333] | > 2500 | < 400 |  | 
Cn1ncc2cccc(NS(=O)(=O)c3cnn(-c4cc([C@@]5(F)CCOC5)ccn4)c3)c21 [Compound I-334] | > 2500 | < 400 |  | 
Cn1ncc2cccc(NS(=O)(=O)c3cnn(-c4cc([C@]5(F)CCOC5)ccn4)c3)c21 [Compound I-335] | > 2500 | < 400 |  | 
[2H]C([2H])([2H])n1ncc2ccc(OC)c(N(C)S(=O)(=O)c3cnn(-c4cc(C(F)(F)F)ccn4)c3)c21 [Compound I-336, N-(6-methoxy-1-(methyl-d3)-1H-indazol-7-yl)-N-methyl-1-(4-(trifluoromethyl)pyridin-2-yl)-1H-pyrazole-4-sulfonamide] | ≤ 400 | < 400 |  | 

Compound | IC50 (Avi-tagged FL MALT-1) [nM] | IC50 [1, 2] [nM] | IC50 ([1]; Homo sapiens, Jurkat) [nM] | IC50 ([1]; Jurkat cells, 1 hr compound pre-incubation, aCD3/aCD28/PMA stimulation 4 hr, One-Glo readout) [nM]
Cn1ncc2ccc(OC(F)(F)F)c(N(S(=O)(=O)c3cnn(-c4cc(C(F)(F)F)ccn4)c3)S(=O)(=O)c3cnn(-c4cc(C(F)(F)F)ccn4)c3)c21 [Compound I-337, N-[1-methyl-6-(trifluoromethoxy)indazol-7-yl]-1-[4-(trifluoromethyl)pyridin-2-yl]-N-{1-[4-(trifluoromethyl)pyridin-2-yl]pyrazol-4-ylsulfonyl}pyrazole-4-sulfonamide] | > 2500 | > 2500 |  | 
[2H]c1cnc(-n2cc(S(=O)(=O)Nc3cccc4cnn(C([2H])([2H])[2H])c34)cn2)cc1C(F)(F)F [Compound I-338, N-(1-(methyl-d3)-1H-indazol-7-yl)-1-(4-(trifluoromethyl)pyridin-2-yl-5-d)-1H-pyrazole-4-sulfonamide] | ≤ 400 | < 400 |  | 
COc1ccc2cnn(C)c2c1NS(=O)(=O)c1cnn(-c2cc(C(C)O)ccn2)c1 (stereo not shown) [Compound I-339, 1-(4-(1-hydroxyethyl)pyridin-2-yl)-N-(6-methoxy-1-methyl-1H-indazol-7-yl)-1H-pyrazole-4-sulfonamide] | ≤ 400 |  |  | < 400
COc1ccc2cnn(C)c2c1NS(=O)(=O)c1cnn(-c2cc([C@@H](C)O)ccn2)c1 [Compound I-340, (R)-1-(4-(1-hydroxyethyl)pyridin-2-yl)-N-(6-methoxy-1-methyl-1H-indazol-7-yl)-1H-pyrazole-4-sulfonamide] | ≤ 400 | < 400 |  | 
COC[C@@H](OC)c1ccnc(-n2cc(S(=O)(=O)Nc3cccc4cnn(C)c34)cn2)c1 [Compound I-341] | > 2500 | < 400 |  | 
COC[C@H](OC)c1ccnc(-n2cc(S(=O)(=O)Nc3cccc4cnn(C)c34)cn2)c1 [Compound I-342] | > 2500 | 400 to 1000 |  | 
C=CC(F)c1ccnc(-n2cc(S(=O)(=O)Nc3c(OC)ccc4cnn(C)c34)cn2)c1 (stereo not shown) [Compound I-343, 1-(4-(1-fluoroallyl)pyridin-2-yl)-N-(6-methoxy-1-methyl-1H-indazol-7-yl)-1H-pyrazole-4-sulfonamide] | ≤ 400 | 1000 to 2500 |  | 
CN1CC(O)(c2ccnc(-n3cc(S(=O)(=O)Nc4cccc5cnn(C)c45)cn3)c2)C1 [Compound I-344] | > 2500 | > 2500 |  | 
CN1CCC(n2cc(S(=O)(=O)Nc3cccc4cnn(C)c34)cn2)CC1 [Compound I-345] | > 2500 | 400 to 1000 |  | 
C[C@H]1CN(c2ccnc(-n3cc(S(=O)(=O)Nc4cccc5cnn(C)c45)cn3)c2)C(=O)N1C [Compound I-346] | > 2500 | < 400 |  | 
C[C@@H]1CN(c2ccnc(-n3cc(S(=O)(=O)Nc4cccc5cnn(C)c45)cn3)c2)C(=O)N1C [Compound I-347, (R)-1-(4-(3,4-dimethyl-2-oxoimidazolidin-1-yl)pyridin-2-yl)-N-(1-methyl-1H-indazol-7-yl)-1H-pyrazole-4-sulfonamide] | > 2500 | < 400 |  | 
C[C@@H]1CN(C)C(=O)N1c1ccnc(-n2cc(S(=O)(=O)Nc3cccc4cnn(C)c34)cn2)c1 [Compound I-348] | > 2500 | < 400 |  | 
C[C@H]1CN(C)C(=O)N1c1ccnc(-n2cc(S(=O)(=O)Nc3cccc4cnn(C)c34)cn2)c1 [Compound I-349] | > 2500 | < 400 |  | 
CN1C[C@H](n2cc(S(=O)(=O)Nc3cccc4cnn(C)c34)cn2)CCC1=O [Compound I-350] | > 2500 | > 2500 |  | 
CN1C[C@@H](n2cc(S(=O)(=O)Nc3cccc4cnn(C)c34)cn2)CCC1=O [Compound I-351] | > 2500 | > 2500 |  | 
[2H]C([2H])([2H])n1ncc2cnc(OC)c(NS(=O)(=O)c3cnn(-c4cc(C(F)(F)F)ccn4)c3)c21 [Compound I-352, N-(6-methoxy-1-(methyl-d3)-1H-pyrazolo[4,3-c]pyridin-7-yl)-1-(4-(trifluoromethyl)pyridin-2-yl)-1H-pyrazole-4-sulfonamide] | ≤ 400 | < 400 |  | 
[2H]c1nn(C([2H])([2H])[2H])c2c(NS(=O)(=O)c3cnn(-c4cc(C(F)(F)F)ccn4)c3)cccc12 [Compound I-353, N-(1-(methyl-d3)-1H-indazol-7-yl-3-d)-1-(4-(trifluoromethyl)pyridin-2-yl)-1H-pyrazole-4-sulfonamide] | ≤ 400 | < 400 |  | 
[2H]C([2H])([2H])n1ncc2cnc(OC)c(N(C)S(=O)(=O)c3cnn(-c4cc(C(F)(F)F)ccn4)c3)c21 [Compound I-354, N-(6-methoxy-1-(methyl-d3)-1H-pyrazolo[4,3-c]pyridin-7-yl)-N-methyl-1-(4-(trifluoromethyl)pyridin-2-yl)-1H-pyrazole-4-sulfonamide] | ≤ 400 | < 400 |  | 
O=S(=O)(c1cnn(-c2cc(C(F)(F)F)ccn2)c1)N1CCn2ncc3cccc1c32 [Compound I-355, 1-((1-(4-(trifluoromethyl)pyridin-2-yl)-1H-pyrazol-4-yl)sulfonyl)-2,3-dihydro-1H-pyrazolo[1,5,4-de]quinoxaline] | > 2500 |  | > 2500 | 
